The text below walks through data of ChEMBL document CHEMBL1158152, “(D)-2-tert-Butoxycarbonylamino-5,5-difluoro-5-phenyl-pentanoic acid: synthesis and incorporation into the growth hormone secretagogues” (Bioorg Med Chem Lett, 2008).

SMILES strings stand for the structures.

Data set [1] is described as follows: Tmax in rat at 15 umole/kg, po. The format is ADME, organism-based. The note with it: in vivo.
Data set [2] can be described thus: Volume of distribution at steady state in rat at 5 umole/kg, iv. The format is ADME, organism-based. The note with it: in vivo, read-out: Vdss.
A short description of data set [3]: Half life in rat at 5 umole/kg, iv. The format is ADME, organism-based. The note with it: in vivo.
Data set [4] is described as follows: Oral bioavailability in rat at 15 umole/kg. The format is ADME, organism-based. To be noted: in vivo.
Data set [5] is described as follows: Clearance in rat at 5 umole/kg, iv. The format is ADME, organism-based. The note with it: in vivo.
The test system of data set [6] is Rattus norvegicus. The experiment in a line: Increase in GH level in acute anesthetized rat at 1.74 umol/kg, iv after 15min relative to control. The format is functional.
Data set [7] can be described thus: Cmax in rat at 15 umole/kg, po. The format is ADME, organism-based. The arrangement: route oral. The note with it: in vivo.
Data set [8] in a line: Mean residence time in rat at 5 umole/kg, iv. The format is ADME, organism-based. The note with it: in vivo.
Data set [9] is described as follows: AUC in rat at 5 umole/kg, iv. The format is ADME, organism-based. To be noted: plasma.
Data set [10] is described as follows: AUC in rat at 15 umole/kg, po. The format is ADME, organism-based. The note with it: plasma.
Data set [11] can be described thus: Oral bioavailability in rat at 10 umole/kg. The format is ADME, organism-based. The note with it: in vivo.
A short description of data set [12]: Cmax in rat at 10 umole/kg, po. The format is ADME, organism-based. The arrangement: route oral. The note with it: in vivo.
Data set [13] in a line: Volume of distribution at steady state in rat at 10 umole/kg, iv. The format is ADME, organism-based. To be noted: in vivo, read-out: Vdss.
Data set [14] in a line: Mean residence time in rat at 10 umole/kg, iv. The format is ADME, organism-based. To be noted: in vivo.
Data set [15] can be described thus: Half life in rat at 10 umole/kg, iv. The format is ADME, organism-based. To be noted: in vivo, read-out: AUC (converted).
Data set [16] in a line: Clearance in rat at 10 umole/kg, iv. The format is ADME, organism-based. To be noted: in vivo.
A short description of data set [17]: Tmax in rat at 10 umole/kg, po. To be noted: in vivo. The format is ADME, organism-based.
A short description of data set [18]: AUC in rat at 10 umole/kg, po. The format is ADME, organism-based. The note with it: plasma.
Data set [19] has as its target Growth hormone secretagogue receptor type 1 (Homo sapiens, UniProt Q92847). The experiment in a line: Agonist activity at GHS receptor. The format is functional.
A short description of data set [20]: AUC in rat at 10 umole/kg, iv. The format is ADME, organism-based. To be noted: plasma.

Sequence of Growth hormone secretagogue receptor type 1 (Q92847 whole entry): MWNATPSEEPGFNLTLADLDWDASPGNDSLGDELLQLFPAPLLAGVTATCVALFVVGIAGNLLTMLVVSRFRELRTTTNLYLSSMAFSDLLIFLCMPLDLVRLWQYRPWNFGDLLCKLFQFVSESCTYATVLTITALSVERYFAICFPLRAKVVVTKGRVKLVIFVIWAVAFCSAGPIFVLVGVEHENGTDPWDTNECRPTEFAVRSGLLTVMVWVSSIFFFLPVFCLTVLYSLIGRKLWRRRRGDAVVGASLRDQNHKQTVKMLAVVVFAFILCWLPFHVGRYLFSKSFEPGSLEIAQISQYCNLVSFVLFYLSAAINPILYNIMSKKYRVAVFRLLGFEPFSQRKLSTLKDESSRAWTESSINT

As to `CC(C)(N)C(=O)N[C@H](COCc1ccccc1)c1nnnn1CCOC(=O)NCCCCO`, the time to peak (Tmax) in [1] was 0.7 h. In addition, the Vd in data set [2] worked out at 6.4 L/kg. Further, the half-life in data set [3] is 0.7 h. In data set [4], this molecule displayed a bioavailability of 9.2%. For the same molecule, the clearance in data set [5] was 213 mL/min/kg. The molecule also showed an Activity in data set [6] of 750%. In addition, in data set [7], the peak level (Cmax) was 68 nM. In data set [8], this molecule displayed an MRT of 0.5 h. Also, the figures for the AUC in data set [9] and in data set [10] were 0.401 µM·h and 0.11 µM·h, respectively.

With `CC(C)(N)C(=O)N[C@H](CCC(F)(F)c1ccccc1)c1nnnn1CCOC(=O)NCCCCO`, in [11], the bioavailability stood at 26%. The concentration in data set [12] peaked (Cmax) at 166 nM. Further, in [13], the Vd turned out to be 16 L/kg. The molecule also displayed an MRT in data set [14] of 1.4 h. For the same molecule, the half-life in data set [15] was 2.4 h. The molecule also gave an Activity in [6] of 1934%. The clearance in data set [16] worked out at 183 mL/min/kg. For the same molecule, the time to peak (Tmax) in [17] amounted to 1.6 h. Also, the exposure (AUC) in data set [18] amounted to 0.239 µM·h; in [20], 0.901 µM·h. For the same molecule, the EC50 in data set [19] amounted to 0.27 nM.

Take `CC(C)(N)C(=O)N[C@H](CCC(F)(F)c1ccccc1)c1nnnn1CCC#N`: the concentration giving a half-maximal response (EC50) in data set [19] was 0.9 nM.

One may read the Tmax as the time at which the peak concentration occurs. As a reminder, the bioavailability is dose-corrected exposure relative to a reference, in per cent. Low readings indicate little systemic uptake, high ones much systemic uptake. What is called clearance is a measure of how efficiently the substance is removed, as volume per time. By Cmax is commonly meant the highest concentration seen after dosing. In general, MRT refers to a mean duration of stay, worked out from the concentration-time curve. A word on the AUC: it is concentration integrated over time. A high value points to more exposure. Usually EC50 stands for the midpoint of the concentration-response curve. Low values mean higher potency in that assay, high ones lower potency in that assay.
